Laboratory results: PubChem BioAssay (NCI)
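GI50 is the concentration that inhibits growth by half. TGI denotes the concentration required for complete inhibition of growth.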

Assays:
Assay in all cases: growth of human tumour cells (NCI), 384-well format; in the data active means GI50 below about 0.43 µM; inactive means the rest
786-0 renal = system: 786-0 renal
A498 renal = system: A498 renal
A549 NSCLC = system: A549 NSCLC
ACHN renal = system: ACHN renal
BT-549 breast = system: BT-549 breast
CAKI-1 renal = system: CAKI-1 renal
CCRF-CEM leukemia = system: CCRF-CEM leukemia
COLO 205 colon = system: COLO 205 colon
DU-145 prostate = system: DU-145 prostate
EKVX NSCLC = system: EKVX NSCLC
HCC-2998 colon = system: HCC-2998 colon
HCT-15 colon = system: HCT-15 colon
HL-60(TB) leukemia = system: HL-60(TB) leukemia
HOP-62 NSCLC = system: HOP-62 NSCLC
HOP-92 NSCLC = system: HOP-92 NSCLC
HS 578T breast = system: HS 578T breast
HT29 colon = system: HT29 colon
IGROV1 ovarian = system: IGROV1 ovarian
KM12 colon = system: KM12 colon
M14 melanoma = system: M14 melanoma
MALME-3M melanoma = system: MALME-3M melanoma
MCF7 breast = system: MCF7 breast
MDA-MB-231 breast = system: MDA-MB-231 breast
MDA-MB-435 melanoma = system: MDA-MB-435 melanoma
MDA-MB-468 breast = system: MDA-MB-468 breast
MOLT-4 leukemia = system: MOLT-4 leukemia
NCI-H226 lung = system: NCI-H226 lung
NCI-H23 lung = system: NCI-H23 lung

O=c1ccn(C2OC(CO)C(O)C2F)c(=O)[nH]1 (stereo unspecified)
inactive: GI50 (786-0 renal) > 100 µM | GI50 (A498 renal) > 100 µM | GI50 (A549 NSCLC) > 100 µM | GI50 (ACHN renal) > 100 µM | GI50 (BT-549 breast) > 100 µM | GI50 (CAKI-1 renal) > 100 µM | GI50 (CCRF-CEM leukemia) 37.3 µM | GI50 (COLO 205 colon) > 100 µM | GI50 (DU-145 prostate) > 100 µM | GI50 (EKVX NSCLC) > 100 µM | GI50 (HCC-2998 colon) > 100 µM | GI50 (HCT-15 colon) > 100 µM | GI50 (HL-60(TB) leukemia) > 100 µM | GI50 (HOP-62 NSCLC) > 100 µM | GI50 (HOP-92 NSCLC) > 100 µM | GI50 (HS 578T breast) > 100 µM | GI50 (HT29 colon) > 100 µM | GI50 (IGROV1 ovarian) > 100 µM | GI50 (KM12 colon) > 100 µM | GI50 (M14 melanoma) > 100 µM | GI50 (MALME-3M melanoma) > 100 µM | GI50 (MCF7 breast) > 100 µM | GI50 (MDA-MB-231 breast) > 100 µM | GI50 (MDA-MB-435 melanoma) > 100 µM | GI50 (MDA-MB-468 breast) > 100 µM | GI50 (MOLT-4 leukemia) 53.1 µM | GI50 (NCI-H226 lung) > 100 µM | GI50 (NCI-H23 lung) > 100 µM
> 100 µM: TGI (786-0 renal) | TGI (A498 renal) | TGI (A549 NSCLC) | TGI (ACHN renal) | TGI (BT-549 breast) | TGI (CAKI-1 renal) | TGI (CCRF-CEM leukemia) | TGI (COLO 205 colon) | TGI (DU-145 prostate) | TGI (EKVX NSCLC) | TGI (HCC-2998 colon) | TGI (HCT-15 colon) | TGI (HL-60(TB) leukemia) | TGI (HOP-62 NSCLC) | TGI (HOP-92 NSCLC) | TGI (HS 578T breast) | TGI (HT29 colon) | TGI (IGROV1 ovarian) | TGI (KM12 colon) | TGI (M14 melanoma) | TGI (MALME-3M melanoma) | TGI (MCF7 breast) | TGI (MDA-MB-231 breast) | TGI (MDA-MB-435 melanoma) | TGI (MDA-MB-468 breast) | TGI (MOLT-4 leukemia) | TGI (NCI-H226 lung) | TGI (NCI-H23 lung)
